This is an account of results in PubChem BioAssay (NCI).

“And” between values parts separate entries of the source, which are not always exact repeats. Equal values may be shown once.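 Protocol summary: plate cells (96-well), add compound at 5 concentrations, incubate 48 h, interpolate endpoints linearly. Here, GI50 denotes the concentration required for 50% inhibition of growth. At the TGI there is no net growth.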 Some results are limits rather than exact numbers.

For one assay, the system named is M14 melanoma. Nature of the assay: inhibition of tumour cell growth, NCI panel, 48 h.
For `O=C1/C(=C/c2ccc([N+](=O)[O-])cc2)COc2ccc(O)cc21`, the GI50 was 7.78 µM and the TGI was greater than 100 µM.
Consider `CC(C)Oc1ccc(C(=O)Cn2ccnc2)cc1-n1c(CN2CCN(C(=O)COc3ccc(Cl)cc3)CC2)nc2ccccc2c1=O`, for which the GI50 was 14 µM and the TGI came out at 32.6 µM.
Consider `COc1cccc(COc2cc(-n3cnc4ccccc43)sc2C(N)=O)c1`, for which the GI50 was greater than 25 µM and the TGI is greater than 25 µM.
As to `CCN(CC)c1ccc(/C=C/C2=[N+](C)c3ccccc3C2(C)C)c(C)c1`, the GI50 was 0.0853 µM and the TGI came to 1.64 µM.
As to `C=C1C(=O)C23C(O)C1CC[C@H]2C12CCCC(C)(COC(C)=O)[C@H]1[C@H](O)[C@]3(O)OC2` (stereo not given in full), the TGI came to 2.84 µM.
Regarding `O=C(c1cccs1)C1NO[N+]([O-])=C1c1cccs1` (stereo not given), the GI50 is 2.71 µM and the TGI turned out to be 7.87 µM.
The molecule `CN1c2ccccc2SC2C(c3ccccc3)=NOC21` (stereo not given) registered a TGI greater than 100 µM.
Consider `COc1ccc(C2=C(N3CCc4ccccc43)C(=O)NC2=O)cc1`, for which the GI50 is greater than 25 µM and the TGI was greater than 25 µM.
Take `O=[N+]([O-])c1ccc(-c2cc3c(Nc4ccc(Cl)c(C(F)(F)F)c4)ncnc3s2)cc1`: the GI50 is 2.86 µM and the TGI was greater than 100 µM.
Turning to `Cc1cc2c(cc1Cl)S/C(=C/C(=O)O)C(Nc1cccc3nsnc13)=NS2(=O)=O`, the GI50 is greater than 47 µM and the TGI is greater than 60.5 µM.
For `COc1ccc(F)c(F)c1C(=O)c1cnc(NC2CCN(S(C)(=O)=O)CC2)nc1N`, the GI50 was 1.48 µM and 0.917 µM; the TGI is 9.66 µM and > 10 µM.
For the molecule `Nc1cc(-c2ccc(Cl)cc2)nn1-c1nnc(/C=C/c2ccco2)c(=O)[nH]1`, the GI50 is 3.41 µM and the TGI came out at 30.6 µM.
The molecule `Cc1c(C)c(CC(=O)N2CC2)c(C)c(C)c1CC(=O)N1CC1` gave a TGI of 18.9 µM.
`O=C1c2ccccc2-c2c1c1c(NCCCO)nc3ccccc3c1n2Cc1ccccc1`: the GI50 is 26.8 µM and the TGI was 58.2 µM.
`CCCCCCCCCCCCCCCCCCOCC(COCCOCC[N+]1(CCCCCC(=O)[O-])CCCC1)Oc1ncccn1` (stereo not given) registered a TGI of 22.7 µM.
In the case of `CCOc1ccc(Nc2c3ccccc3nc3ccccc23)cc1`, the GI50 is 0.359 µM and 0.312 µM; the TGI was 1.51 µM and 1.69 µM.

In another assay the test system is NCI-H23 lung. Nature of the assay: inhibition of tumour cell growth, NCI panel, 48 h.
With `O=C1/C(=C/c2ccc([N+](=O)[O-])cc2)COc2ccc(O)cc21`, the GI50 was 7.83 µM and the TGI stood at 36.3 µM.
Regarding `CC(C)Oc1ccc(C(=O)Cn2ccnc2)cc1-n1c(CN2CCN(C(=O)COc3ccc(Cl)cc3)CC2)nc2ccccc2c1=O`, the GI50 was 16.2 µM and the TGI came out at 37.7 µM.
On to `COc1cccc(COc2cc(-n3cnc4ccccc43)sc2C(N)=O)c1`, for which the GI50 is greater than 16.6 µM and the TGI is greater than 25 µM.
On to `CCN(CC)c1ccc(/C=C/C2=[N+](C)c3ccccc3C2(C)C)c(C)c1`, for which the GI50 was less than 0.0244 µM and the TGI came out at 10.5 µM.
As for `C=C1C(=O)C23C(O)C1CC[C@H]2C12CCCC(C)(COC(C)=O)[C@H]1[C@H](O)[C@]3(O)OC2` (stereo not given in full), the TGI came out at 3.53 µM.
As for `O=C(c1cccs1)C1NO[N+]([O-])=C1c1cccs1` (stereo not given), the GI50 is 2.94 µM and the TGI was 9.42 µM.
`CN1c2ccccc2SC2C(c3ccccc3)=NOC21` (stereo not given) yielded a TGI of 71.7 µM.
As to `COc1ccc(C2=C(N3CCc4ccccc43)C(=O)NC2=O)cc1`, the GI50 is greater than 25 µM and the TGI was greater than 25 µM.
In the case of `O=[N+]([O-])c1ccc(-c2cc3c(Nc4ccc(Cl)c(C(F)(F)F)c4)ncnc3s2)cc1`, the GI50 was 1.06 µM and the TGI was greater than 100 µM.
The matching figures for `Cc1cc2c(cc1Cl)S/C(=C/C(=O)O)C(Nc1cccc3nsnc13)=NS2(=O)=O`: 35.2 µM and greater than 61.7 µM.
With `COc1ccc(F)c(F)c1C(=O)c1cnc(NC2CCN(S(C)(=O)=O)CC2)nc1N`, the GI50 is 0.814 µM and 0.397 µM; the TGI is 5.28 µM and 3.3 µM.
In the case of `Nc1cc(-c2ccc(Cl)cc2)nn1-c1nnc(/C=C/c2ccco2)c(=O)[nH]1`, the GI50 is 7.73 µM and the TGI stood at 63.5 µM.
`Cc1c(C)c(CC(=O)N2CC2)c(C)c(C)c1CC(=O)N1CC1` came in with a TGI of 39.4 µM.
For the molecule `O=C1c2ccccc2-c2c1c1c(NCCCO)nc3ccccc3c1n2Cc1ccccc1`, the GI50 was 14.4 µM and the TGI turned out to be 34.9 µM.
As to `CCCCCCCCCCCCCCCCCCOCC(COCCOCC[N+]1(CCCCCC(=O)[O-])CCCC1)Oc1ncccn1` (stereo not given), the TGI was found to be 18.1 µM.
On to `CCOc1ccc(Nc2c3ccccc3nc3ccccc23)cc1`, for which the GI50 is 0.495 µM and 0.422 µM; the TGI was 4.51 µM and 3.3 µM.

In another assay the test system is OVCAR-4 ovarian. Nature of the assay: inhibition of tumour cell growth, NCI panel, 48 h.
As to `O=C1/C(=C/c2ccc([N+](=O)[O-])cc2)COc2ccc(O)cc21`, the GI50 was 11.3 µM and the TGI was greater than 100 µM.
Turning to `CC(C)Oc1ccc(C(=O)Cn2ccnc2)cc1-n1c(CN2CCN(C(=O)COc3ccc(Cl)cc3)CC2)nc2ccccc2c1=O`, the GI50 was 3.6 µM and the TGI is greater than 64.8 µM.
In the case of `COc1cccc(COc2cc(-n3cnc4ccccc43)sc2C(N)=O)c1`, the GI50 is greater than 25 µM and the TGI was greater than 25 µM.
`CCN(CC)c1ccc(/C=C/C2=[N+](C)c3ccccc3C2(C)C)c(C)c1`: the GI50 is 0.0524 µM and the TGI worked out at 11.2 µM.
On to `C=C1C(=O)C23C(O)C1CC[C@H]2C12CCCC(C)(COC(C)=O)[C@H]1[C@H](O)[C@]3(O)OC2` (stereo not given in full), for which the TGI was determined as 5.49 µM.
With `O=C(c1cccs1)C1NO[N+]([O-])=C1c1cccs1` (stereo not given), the GI50 is 2.13 µM and the TGI stood at 4.97 µM.
Take `CN1c2ccccc2SC2C(c3ccccc3)=NOC21` (stereo not given): the TGI is greater than 100 µM.
Turning to `COc1ccc(C2=C(N3CCc4ccccc43)C(=O)NC2=O)cc1`, the GI50 was greater than 25 µM and the TGI was greater than 25 µM.
